Source: patent US7122360B1, “Polypeptides, polynucleotides and uses thereof” (University of Dundee, priority 1998, dated 2006)
Entries after “also recorded” stand apart in the source; their conditions may differ.

Experiments:
MSK1 [1] = assay: Arsenite and FGF-induced activation of MSK1 in SK-N-MC cells; format: cell-based; settings: for FGF-induced activation of MSK1: 50 μM PD 98059, 10 μM SB 203580, FGF 50 ng/ml 15 min
Procedure: FIG. 14. […] After cell lysis aliquots were assayed for either MSK1 (A), MAPKAP-K1 (B), MAPKAP-K2 (C) after their immunoprecipitation from the lysates or immunoblotted for phosphorylation of CREB and ATF1 (D).
Cell Culture, stimulation and cell lysis.

CREB and ATF1 [2] = assay: CREB and ATF1 phosphorylation in RAW 264 macrophages, immunoblot; format: cell-based, mouse; settings: for LPS-induced phosphorylation of CREB and ATF1: LPS 100 ng/ml 1 h
Procedure: FIG. 15. […] After cell lysis aliquots were assayed for either MSK1 (A), MAPKAP-K1 (B), MAPKAP-K2 (C) after their immunoprecipitation from the lysates or immunoblotted for phosphorylation of CREB and ATF1 (D).
FIG. 19. […] (A) Macrophages were stimulated for the times indicated with LPS (100 ng/ml). After cell lysis, aliquots of the lysate (30 Tg protein) were denatured in SDS, electrophoresed on a 10% polyacrylamide gel, transferred to a nitrocellulose membrane, and immunoblotted with a phospho-CREB antibody. The positions of the molecular mass markers glycogen phosphorylase (97 kDa), bovine serum albumin (66 kDa), ovalbumin (43 kDa) and carbonic anhydrase (30 kDa) are indicated. […] (B) As in A, except that the macrophages were incubated for 1 h in the presence or absence of 50 TM PD 98059 and/or 10 TM SB 203580 (SB), or 5 TM Ro 318220 (Ro), then stimulated for 1 h in the absence or presence of 100 ng/ml LPS and in the continued presence or absence of the inhibitors.
FIG. 22. […] (A) Macrophages were stimulated for 1 h with LPS (100 ng/ml) or for 15 min with forskolin (F) (20 TM) plus IBMX (10 TM). After cell lysis, aliquots of the lysate (30 Tg protein) were immunoblotted with a phospho-specific CREB antibody (see legend to FIG. 19 for details and molecular mass markers). (B) Macrophages were stimulated for 3 h with LPS (100 ng/ml), or forskolin (20 TM) plus IBMX (10 TM), and immunoblotting performed with a specific COX-2 antibody (materials & methods section). The marker proteins are as in FIG. 19.
(§1) Cell culture and stimulation. RAW 264 macrophages were maintained in a 95% air/5% CO2 atmosphere in Dulbecco's modified Eagle's medium (DMEM) plus 10% (v/v) heat-inactivated foetal calf serum, 100 U/ml penicillin, […] streptomycin. The day before stimulation, the macrophages were plated at a density of 2×10^6 cells per 6 cm plate and 2 h before stimulation, the medium removed and replaced with 2 ml of DMEM. Where indicated, […] (10 TM) and/or PD 98059 (50 Tm), or U0126 (10 TM) or Ro 318220 (5 TM), were added 1 h before stimulation.
Immunoblotting. For immunoblotting of CREB, nuclear cell extracts were prepared as described and immunoblotting performed using a phospho-specific antibody recognising CREB phosphorylated on Ser 133 and ATF1 phosphorylated on Ser 63. For immunoblotting of COX-2, cell lysate (30 Tg protein) was denatured in SDS, electrophoresed on 10% polyacrylamide gel, transferred to a nitrocellulose membrane, and immunoblotted with anti-COX-2 antibody (1.0 mg/ml). Detection of phosphorylated CREB and ATF1 and COX-2 was performed using the enhanced chemiluminescence reagent (ECL).

IL-1 mRNA = assay: IL-1 gene transcription in RAW 264 macrophages, RT-PCR; format: cell-based, mouse; settings: LPS 3 h, PD 98059 (50 TM), SB 203580 (10 TM), Ro 318220 (5 TM)
Procedure: FIG. 21. Effect of PD 98059 and SB 203580 on gene transcription in RAW 264 macrophages. (A) Cells were stimulated for the times indicated with LPS (100 ng/ml). Total RNA was extracted at each time point and mRNA encoding IL-1, COX-2 and HRPT was determined using the reverse transcriptase polymerase chain reaction (Section 2.6). (B) As in A, except that the macrophages were incubated for 1 h in the presence or absence of PD 98059 (50 TM) and/or SB 203580 (10 TM), or Ro 318220 (5 TM), then stimulated for 3 h in the absence or presence of LPS, and in the continued presence or absence of the inhibitors. RTPCR was performed using oligonucleotides encoding fragments of IL-1, COX-2 and HPRT.
as §1
Reverse transcripts polymerase chain reactions. Total RNA was prepared from LPS-stimulated or control RAW 264 cells using the Rneasy Mini Kit according to the manufacturer's protocol. Total RNA was measured and 100 ng was reverse transcribed using Promega AMV reverse transcriptase (5 U/ml) with the oligonucleotides […] and […] TGA (coding for the IL-1 gene) and […] and […] (coding for the COX-2 gene). Conditions for PCR amplification of the resulting first-stand DNA template were 94° C. denaturing for 30 sec, 60° C. annealing for 1 min, 68° C. extension for 1 min, 30 cycles using thermostable Tf1 DNA polymerase (SU/ml), and 1 mM MgSO4.

CREB and ATF1 [3] = assay: Phosphorylation of CREB (Ser133) and ATF1 (Ser63) in 293 cells, immunoblot; format: cell-based, human; settings: for EGF-induced CREB phosphorylation: 5 μM Ro 318220, 10 μM SB 203580, 50 μM PD 98059, EGF 100 ng/ml; for UV radiation-induced phosphorylation of CREB and ATF1: 5 μM Ro 318220, 10 μM SB 203580, 50 μM PD 98059
Procedure: FIG. 10. […] 293 cells were pre-treated either in the presence or absence of 5 μM Ro 318220 (Ro), 10 μM SB 203580 (SB), 50 μM PD 98059 (PD), and then exposed to either (A, D) UV radiation (200 J/m^2, 30 min and then 30 min at 37° C.) (B, E) EGF (100 ng/ml, 15 min), (C) forskolin (20 μM, 15 min). The cells were lysed and proteins were separated on 10% acrylamide gels and immunoblotted using a phosphospecific antibody that recognised both CREB and ATF1 when phosphorylated on Ser133 and Ser63 respectively. The position of CREB and ATF1 on the blots is indicated.
Immunoblotting for phosphorylated CREB and ATF1. Cell extracts were prepared and immunoblotting of these carried out as described (Tan et al., 1996) using a phosphospecific antibody recognizing CREB phosphorylated on Ser 133 and ATF1 phosphorylated on Ser63 purchased from UBI (Lake Placid, USA). Detection of phosphorylated CREB and ATF1 proteins was performed using the enhanced chemiluminescence reagent (Amersham).

MSK1 [4] = assay: NGF-induced activation of MSK1 in PC12 cells; settings: 50 μM PD 98059, 10 μM SB 203580, NGF 30 ng/ml 15 min
[5] = 50 TM PD 98059, 10 TM SB 203580, 5 TM Ro 318220

Structure (SMILES) | FGF-induced activation of MSK1 (MSK1 [1]) | LPS-induced phosphorylation of CREB and ATF1 (CREB and ATF1 [2]; [5]) | LPS induction of IL-1 mRNA (IL-1 mRNA) | EGF-induced CREB phosphorylation (CREB and ATF1 [3]) | NGF-induced activation of MSK1 (MSK1 [4]) | MSK1 activation in cells (MSK1 [1]; 5 μM Ro 318220, inhibitor removed on immunoprecipitation) | forskolin-triggered phosphorylation of CREB and ATF-1, effect of inhibitors (CREB and ATF1 [2]; data not shown) | UV radiation-induced phosphorylation of CREB and ATF1 (CREB and ATF1 [3]) | phosphorylation of CREB and ATF1 induced by forskolin (CREB and ATF1 [3]; 5 μM Ro 318220, forskolin 20 μM, 15 min) | sodium arsenite-induced activation of MSK1 (MSK1 [1]; 50 μM PD 98059, 10 μM SB 203580, arsenite 0.5 mM 15 min) | LPS-induced phosphorylation of CREB and ATF1 (CREB and ATF1 [2]; 50 TM PD 98059, 10 TM SB 203580, 5 TM Ro 318220, listed as SB203580)
COc1cccc(-c2cc(=O)c3ccccc3o2)c1N [PD 98059] | only partially suppressed | appear to inhibit; also recorded: partially inhibited | partially inhibited | prevented | not significantly affected | – | – | – | – | – | –
Cn1cc(C2=C(c3cn(CCCSC(=N)N)c4ccccc34)C(=O)NC2=O)c2ccccc21 [Ro 318220] | – | completely prevents | suppresses | largely inhibited | – | does not affect MSK1 activation | not suppressed | largely inhibited | unaffected | – | –
C[S+]([O-])c1ccc(-c2nc(-c3ccncc3)c(-c3ccc(F)cc3)[nH]2)cc1 (centres unmarked) [SB 203580] | only partially suppressed | partially inhibited | partially inhibited | not SB203580 | not significantly affected | – | – | inhibited | – | prevented | appear to inhibit
